Patent US20180110824A1, “Macrocyclic Modulators of the Ghrelin Receptor” (Ocera Therapeutics, Inc., priority 2016, published 2018)

These compounds were tested against T1, human growth hormone secretagogue receptor (hGHS-R1a) (Homo sapiens, UniProt Q92847) (assay: Competitive radioligand binding assay (ghrelin receptor), [125I]-ghrelin displacement on GHS-R/HEK 293 membranes). Details: Table 3B; binding activity at the human ghrelin receptor; read-out: Ki.
T1 construct: purchased PerkinElmer BioSignal #RBHGHSM; host or cells: HEK-293, stably transfected
T1 sequence (Q92847 whole entry): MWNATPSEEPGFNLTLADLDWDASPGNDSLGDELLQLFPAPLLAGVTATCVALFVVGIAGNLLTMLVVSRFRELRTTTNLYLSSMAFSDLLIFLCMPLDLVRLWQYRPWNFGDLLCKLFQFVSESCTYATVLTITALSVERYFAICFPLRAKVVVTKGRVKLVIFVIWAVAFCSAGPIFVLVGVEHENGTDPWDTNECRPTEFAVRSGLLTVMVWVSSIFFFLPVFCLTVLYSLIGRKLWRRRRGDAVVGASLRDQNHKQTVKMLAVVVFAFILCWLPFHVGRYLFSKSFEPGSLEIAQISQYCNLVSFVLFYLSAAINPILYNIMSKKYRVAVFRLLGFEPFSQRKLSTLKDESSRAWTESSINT
Procedure: The competitive binding assay at the human growth hormone secretagogue receptor (hGHS-R1a) was carried out analogously to assays described in the literature.
Multiscreen Harvest plates-GF/C (Millipore, #MAHFC1H60) • 4. […] Bottom seal (Millipore, #MATAH0P00) • 7. […] Binding Buffer: 25 mM Hepes (pH 7.4), 1 mM CaCl2, 5 mM MgCl2, 2.5 mM EDTA, 0.4% BSA
Competition experiments were performed in a 300 μl filtration assay format. • 1. 220 μL of membranes diluted in binding buffer • 2. 40 μL of compound diluted in binding buffer • 3.
Compounds were provided frozen on dry ice at a stock concentration of 10 mM diluted in 100% DMSO and stored at −80° C. until the day of testing. On the test day, compounds were allowed to thaw at rt O/N and then diluted in assay buffer according to the desired test concentrations. Under these conditions, the maximal final DMSO concentration in the assay was 0.1%.
Plates were sealed with TopSeal-A, vortexed gently and incubated at rt for 30 min. The reaction was arrested by filtering samples through Multiscreen Harvest plates (pre-soaked in 0.5% polyethyleneimine) using a Tomtec Harvester, washed 9 times with 500 μL of cold 50 mM Tris-HCl (pH 7.4, 4° C.), and then plates were air-dried in a fumehood 30 min. A bottom seal was applied to the plates prior to the addition of 25 μL of MicroScint-0 to each well. […] Results were expressed as counts per minute (cpm).
Data were analyzed by GraphPad Prism (GraphPad Software, San Diego, Calif.) using […] non-linear regression analysis.
where total and non-specific binding represent the cpm obtained in the absence or presence of 1 μM ghrelin, respectively.
• 1. Binding performed on membranes prepared from HEK293 expressing the transfected, cloned human ghrelin receptor (hGHS-R1a). • 2. […] Ghrelin (unlabeled, 1 μM) was used to determine non-specific binding. • 4.
For `COC[C@@H]1NCCOc2ccccc2CCCNC(=O)[C@@H](Cc2ccc(F)cc2)NC(=O)[C@@H](C)N(C)C1=O` [compound 336], the Ki was 0.1 to 1 µM.
With `C[C@@H]1C(=O)N[C@H](Cc2ccc(F)cc2)C(=O)NCCCc2ccccc2OCCN[C@@H](CN)C(=O)N1C` [compound 337] the Ki was 0.1 to 1 µM.
Work on `C[C@@H]1C(=O)N[C@H](Cc2ccc(F)cc2)C(=O)NCCCc2ccccc2OCCN[C@@H](CCN)C(=O)N1C` [compound 338] yielded a Ki of 0.1 to 1 µM.
Compound `C[C@@H]1C(=O)N[C@H](Cc2ccc(F)cc2)C(=O)NCCCc2ccccc2OCCN[C@@H](CCCN)C(=O)N1C` [compound 339] has a Ki of 0.1 to 1 µM.
For `CSCC[C@@H]1NCCOc2ccccc2CCCNC(=O)[C@@H](Cc2ccc(F)cc2)NC(=O)[C@@H](C)N(C)C1=O` [compound 340], the Ki was 0.01 to 0.1 µM.
In the case of `O=C1NC2(CCCC2)C(=O)N[C@@H](Cc2cccc(Cl)c2)C(=O)NC/C=C/c2ccccc2OCCN[C@H]1Cc1ccsc1` [compound 341], the Ki is reported as 0.01 to 0.1 µM.
In the case of `N#Cc1ccccc1C[C@@H]1NCCOc2ccccc2/C=C/CNC(=O)[C@H](Cc2cccc(Cl)c2)NC(=O)C2(CCCC2)NC1=O` [compound 342], the Ki is reported as 0.1 to 1 µM.
`COC[C@@H]1NCCOc2ccccc2/C=C/CNC(=O)[C@H](Cc2cccc(Cl)c2)NC(=O)C2(CCCC2)NC1=O` [compound 344] showed a Ki of 0.1 to 1 µM.
For `O=C1NC/C=C/c2ccccc2OCCN[C@@H](C2CC2)C(=O)NC2(CCCC2)C(=O)N[C@H]1Cc1cccc(Cl)c1` [compound 346], the Ki was 0.1 to 1 µM.
`C[C@@H]1C(=O)N[C@H](Cc2ccc(F)cc2)C(=O)NCCCc2cc(F)ccc2OCCN[C@@H](C2CC2)C(=O)N1C` [compound 355] gave a Ki of 0.01 to 0.1 µM.
In the case of `C[C@@H]1C(=O)N[C@H](Cc2ccc(F)cc2)C(=O)NCCCc2cc(C(F)(F)F)ccc2OCCN[C@@H](C2CC2)C(=O)N1C` [compound 356], the Ki is reported as 0.1 to 1 µM.
For `C[C@@H]1C(=O)N[C@H](Cc2ccc(F)cc2)C(=O)NCCCc2ccc(NS(C)(=O)=O)cc2OCCN[C@@H](C2CC2)C(=O)N1C` [compound 357], the Ki was 0.1 to 1 µM.
`CC[C@H](C)[C@@H]1NCCOc2ccccc2C(C)(C)CCNC(=O)[C@H](Cc2cccc(Cl)c2)NC(=O)C2(CCCC2)NC1=O` [compound 359] was tested, and the Ki was 0.1 to 1 µM.
`CC[C@H](C)[C@@H]1NCCOCC=CCCNC(=O)[C@H](Cc2cccc(Cl)c2)NC(=O)C2(CCCC2)NC1=O` [compound 360] gave a Ki of 0.1 to 1 µM.
Compound `CCC(C)C1NCCCc2ccccc2C=CCCNC(=O)C(Cc2cccc(Cl)c2)NC(=O)C2(CCCC2)NC1=O` (centres unmarked) [compound 361] has a Ki of 0.1 to 1 µM.
Compound `CC[C@H](C)[C@@H]1NCc2ccccc2CCCCCNC(=O)[C@H](Cc2cccc(Cl)c2)NC(=O)C2(CCCC2)NC1=O` [compound 362] has a Ki of 0.1 to 1 µM.
`CC[C@H](C)[C@@H]1NCCCCCCNC(=O)[C@H](Cc2cccc(Cl)c2)NC(=O)C2(CCCC2)NC1=O` [compound 365] gave a Ki of 0.1 to 1 µM.
Compound `CC[C@H](C)[C@@H]1NCCCCCCCNC(=O)[C@H](Cc2cccc(Cl)c2)NC(=O)C2(CCCC2)NC1=O` [compound 366] has a Ki of 0.1 to 1 µM.
For `CCC(C)C1NCCOCCCCCNC(=O)C(Cc2cccc(Cl)c2)NC(=O)C2(CCCC2)NC1=O` (centres unmarked) [compound 370], the Ki was 0.1 to 1 µM.
`CC[C@H](C)[C@@H]1NCCCc2ccccc2CCCCNC(=O)[C@H](Cc2cccc(Cl)c2)NC(=O)C2(CCCC2)NC1=O` [compound 371] showed a Ki of 0.01 to 0.1 µM.
With `C[C@@H]1C(=O)N[C@H](Cc2ccc(F)cc2)C(=O)NCCCc2cc(Cl)ccc2OCCN[C@@H](C2CC2)C(=O)N1C` [compound 373] the Ki was 0.01 to 0.1 µM.
In the case of `CC1CCNC(=O)[C@@H](Cc2ccc(F)cc2)NC(=O)[C@@H](C)N(C)C(=O)[C@H](C2CC2)NCCOc2ccccc21` (some centres unmarked) [compound 375], the Ki is reported as 0.1 to 1 µM.
Compound `CC1CNC(=O)[C@@H](Cc2ccc(F)cc2)NC(=O)[C@@H](C)N(C)C(=O)[C@H](C2CC2)NCCOc2ccccc2C1` (some centres unmarked) [compound 376] has a Ki of 0.1 to 1 µM.
`C[C@@H]1C(=O)N[C@H](Cc2ccc(F)cc2)C(=O)NCCC(C)(C)c2ccccc2OCCN[C@@H](C2CC2)C(=O)N1C` [compound 378] was tested, and the Ki was 0.1 to 1 µM.
`CC1C(=O)NC(Cc2ccc(F)cc2)C(=O)NCC2CC2c2ccccc2OCCNC(C2CC2)C(=O)N1C` (centres unmarked) [compound 379] showed a Ki of 0.01 to 0.1 µM.
`CC[C@H](C)[C@@H]1NCCOc2ccccc2/C=C\CNC(=O)[C@H](Cc2cccc(Cl)c2)NC(=O)C2(CCCC2)NC1=O` [compound 380] gave a Ki of 0.1 to 1 µM.
`CC[C@H](C)[C@@H]1NCCOc2ccccc2C#CCNC(=O)[C@H](Cc2cccc(Cl)c2)NC(=O)C2(CCCC2)NC1=O` [compound 381] gave a Ki of 0.01 to 0.1 µM.
`CC[C@H](C)[C@@H]1NCCOc2cc(F)ccc2CCCNC(=O)[C@H](Cc2cccc(Cl)c2)NC(=O)C2(CCCC2)NC1=O` [compound 383] gave a Ki of 0.1 to 1 µM.
`CC[C@H](C)[C@@H]1NCCOc2ccc(Cl)cc2CCCNC(=O)[C@H](Cc2cccc(Cl)c2)NC(=O)C2(CCCC2)NC1=O` [compound 384] gave a Ki of 0.1 to 1 µM.
`CC[C@H](C)[C@@H]1NCCOc2cccnc2CCCNC(=O)[C@H](Cc2cccc(Cl)c2)NC(=O)C2(CCCC2)NC1=O` [compound 385] was tested, and the Ki was 0.1 to 1 µM.
For `CC[C@H](C)[C@@H]1NCCOc2ccccc2C(C)CCNC(=O)[C@H](Cc2cccc(Cl)c2)NC(=O)C2(CCCC2)NC1=O` (some centres unmarked) [compound 386], the Ki was 0.1 to 1 µM.
With `CC[C@H](C)[C@@H]1NCCOc2ccccc2[C@@H]2C[C@@H]2CNC(=O)[C@H](Cc2cccc(Cl)c2)NC(=O)C2(CCCC2)NC1=O` [compound 387] the Ki was 0.1 to 1 µM.
`CC[C@H](C)[C@@H]1NCCCNCCNC(=O)[C@H](Cc2cccc(Cl)c2)NC(=O)C2(CCCC2)NC1=O` [compound 390] was tested, and the Ki was 0.1 to 1 µM.
Work on `C[C@@H]1C(=O)N[C@H](Cc2cc(F)c(F)c(F)c2)C(=O)NCCCc2ccccc2OCCN[C@@H](C2CC2)C(=O)N1C` [compound 391] yielded a Ki of 0.0001 to 0.01 µM.
Compound `CC[C@H](C)[C@@H]1NCCOc2ccccc2CC(C)CNC(=O)[C@H](Cc2cccc(Cl)c2)NC(=O)C2(CCCC2)NC1=O` (some centres unmarked) [compound 392] has a Ki of 0.01 to 0.1 µM.
With `CC[C@H](C)[C@@H]1NCCOCCOCCNC(=O)[C@H](Cc2cccc(Cl)c2)NC(=O)C2(CCCC2)NC1=O` [compound 393] the Ki was 0.1 to 1 µM.
Compound `C[C@@H]1C(=O)N[C@H](Cc2ccc(F)cc2)C(=O)NCCCCCOCCN[C@@H](C2CC2)C(=O)N1C` [compound 398] has a Ki of 0.1 to 1 µM.
Compound `C[C@@H]1C(=O)N[C@H](Cc2ccc(F)cc2)C(=O)NC/C=C\c2ccccc2OCCN[C@@H](C2CC2)C(=O)N1C` [compound 400] has a Ki of 0.01 to 0.1 µM.

Same assay, conditions: Table 3C; read-out: Ki
Compound `C[C@@H]1C(=O)N[C@H](Cc2cccc(Cl)c2)C(=O)NC/C=C/c2ccccc2OCCNC2(CCCC2)C(=O)N1C` [compound 396] has a Ki of 0.01 to 0.1 µM.
`C[C@H]1C(=O)N[C@H](Cc2cccc(Cl)c2)C(=O)NC/C=C/c2ccccc2OCCNC2(CCCC2)C(=O)N1C` [compound 397] was tested, and the Ki was 0.1 to 1 µM.

Same assay, conditions: Table 3D; read-out: Ki
Compound `CC(C)C[C@@H]1NC[C@@H](C)Oc2ccccc2CCCNC(=O)[C@H](Cc2cccc(Cl)c2)NC(=O)C2(CCCC2)NC1=O` [compound 438] has a Ki of 1 to 10 µM.
With `CC[C@H](C)[C@@H]1NCCOc2ccccc2CCCNC(=O)[C@@H](Cc2ccc(F)cc2)NC(=O)[C@@H](COCc2ccccc2)N(C)C1=O` [compound 440] the Ki was 0.1 to 1 µM.
With `CCCC1NCCOc2ccccc2CCCNC(=O)C(C(C)c2ccccc2)NC(=O)CN(C)C1=O` (centres unmarked) [compound 448] the Ki was 1 to 10 µM.
For `CC[C@H](C)[C@@H]1NCCOc2ncccc2CCCNC(=O)[C@H](Cc2cccc(Cl)c2)NC(=O)C2(CCCC2)NC1=O` [compound 449], the Ki was 1 to 10 µM.
